Experimental findings from US20160037782A1, “COMBINATIONS OF ANTIFUNGAL COMPOUNDS AND TEA TREE OIL” (priority 2011, published 2016) are described below.

In assay [1] the test system is coffee plant rust. The assay is described as follows: Coffee plant rust: compositions applied to coffee plant leaves, degree and severity of infection observed later (Example 1). The class given is in vivo, Hemileia vastatrix. The conditions noted are these: applied alone. Here is the method:
The effect of application of a TTO-containing composition (Timorex Gold®), alone and in combination with tebuconazole (simultaneous and in alternation), on coffee plant rust, was tested, by applying the compositions to coffee plant leaves and observing the degree and severity of infection later.

The test system of assay [2] is rust in garlic plants. The assay is described as follows: Control of rust in organically grown garlic plants, field spray trial (Example 2). The assay is classed as in vivo, Puccinia alli. As to conditions: 0.25%. Here is the method:
Organically grown garlic plants were treated with a 53.8% copper hydroxide solution, Timorex Gold, or a mixture of the two. The plants were sprayed six times, on the first day of the trial and then approximately every six days thereafter. Observations were made on days 1 (before spraying), 29 and 40 of the trial. The results are shown in the table below; d.a.a.=days after application; numbers are presented as % of disease severity on leaves. The effectiveness may have been comprised by the relatively large amount of rain that fell during the trial.
(§1) Treatments were applied in a randomized complete block, with 5 replications per treatment. Plot size in each instance was of 6 m length, containing 20 plants. Fungicidal treatment was applied using backpack sprayer equipped with a mist blower (STHIL 340) to spray a volume of 300 liter/ha. Disease severity was evaluated by determining the leaf area covered with rust (disease severity) on each of 20 leaves randomly selected per each replicate. To analyze the results, an arc-sin transformation was performed on the raw data, and analysis of variance (ANOVA) using the SAS GLM procedure was applied to the transformed data. The Tukey-Kramer Test was applied to determine whether differences between treatments were significant. In the tables, “a”, “b” and “c”, refer to differences in statistical analysis that are familiar to users of the Tukey-Kramer test.

Assay [3] concerns rust in green onions. The experiment in a line: Control of rust in organically grown green onions, field spray trial (Example 3). The class given is in vivo, Puccinia alli. As to conditions: 2.5 g/l. Here is the method:
as §1
In a manner similar to that in Example 2, the effect of TG and the copper hydroxide solution were tested on organically grown green onions, by application at a rate of 500 l/ha.

[4] abbreviates: 4th evaluation, 1 day after 5th treatment.
Where [5] appears, read: 5th evaluation, on day of 7th treatment.
Setting [6] is: 6th evaluation, 7 days after 7th treatment.
The mark [7] stands for this setting: second evaluation, 2 days after second treatment.
Where [8] appears, read: third evaluation, on day of fourth treatment.

As for `CC(C)(C)C(O)(CCc1ccc(Cl)cc1)Cn1cncn1` (stereo not drawn) [tebuconazole], the “retention of leaves by the plants” value in assay [1] is “higher retention of leaves”. Also, the “severity of the disease” value in assay [1] (coffee plants) is listed as “overall lower severity of the disease”.

On to `[Cu+2].[OH-].[OH-]` [Copper hydroxide, copper hydroxide], for which the “40 d.a.a. % green relative to control” value in assay [2] (40 d.a.a.) is reported as 206.1%. Moreover, the “40 d.a.a.: % green” value in assay [2] (40 d.a.a.) was 60.0 a %. Besides, the “Day 0 % of infected area” value in assay [2] (baseline before spraying) stood at 0.2 a %. Also, the “Effectiveness in eradicating relative to control” value in assay [2] (six days after fifth application) came to 53.0. The “% of infected area” value in assay [2] (six days after fifth application, 300 liter/ha) stood at 27.0 b %. The “% area infected by rust” value in assay [3] (setting [4]) worked out at 8.5 b %; in assay [3] (setting [5]), 12.5 b %; in assay [3] (setting [6]), 18.7 b %; in assay [3] (first evaluation, before treatment), 0.3 a %; in assay [3] (setting [7]), 1.8 ab %; in assay [3] (setting [8]), 2.5 b %. For the same molecule, the “Efficacy of treatment, %” value in assay [3] (setting [4]) was 70.3%; in assay [3] (setting [5]) it was 76.9%; in assay [3] (setting [6]) it was 75.1%; in assay [3] (setting [7]), 62.1%; in assay [3] (setting [8]), 79.2%.
